# Assay results taken from patent publication US20100022014A1, “Method for Evaluating Obesity Controller” (Kao Corporation, priority 2006, published 2010).
# Test system: insulin secretion
# Assay: Postprandial insulin secretion after oral glucose + triolein emulsion with added 1-monoolein (Example 5)
# Assay type: in vivo, mouse
# Conditions: MAG in a one-tenth or one-fifth amount, in words
# Method: Triolein (obtained from Sigma Corp.) was used as triacylglycerol, and 1-monoolein (obtained from Sigma Corp.) was used as monoacylglycerol. Glucose (Kanto Chemical Co., Inc.) was used as the carbohydrate.
# Eight fasted mice (C57BL/6J, male, 8 weeks old) were grouped in each group, and the mice were orally administered, using a sonde, with 2 mg/g of body weight of glucose only; with the glucose and also 2 mg/g of body weight of triolein (TAG), in the form of an emulsion obtained by emulsifying 0.02 mg/g of body weight of the lipid with egg yolk lecithin (Glucose and TAG/MAG0, respectively); or with mixtures obtained by respectively adding 0.08, 0.2 and 0.4 mg/g of body weight of 1-monoolein (MAG) to the emulsion (TAG/MAG1, TAG/MAG2, and TAG/MAG3, respectively). The blood was sampled from the orbital vein of each mouse before the administration, and at 10 and 30 minutes after the administration, the blood insulin level was measured, and the area under curve (AUC) of the graph was calculated. The insulin level was measured by the ELISA method (insulin measuring kit, Morinaga Biochemical Lab, Inc.).
# Relative values of the amount of secreted insulin (AUC) for 30 minutes after the administration, with respective to the insulin AUC value of the mice which ingested glucose only, taken as 100, are presented in Table 9.
smiles,measurement,value
"CCCCCCCC/C=C\CCCCCCCC(=O)OCC(O)CO (stereo not shown) [MAG, 1-monoolein]",Effect on postprandial insulin secretion relative to TAG/MAG0,effect of suppressing the postprandial insulin secretion in the blood was recognized
